Laboratory results reported in patent publication US7416848B2, “DNA encoding SNORF25 receptor” (H. Lundbeck A/S, priority 1999, dated 2008).

Key:
SNORF25 [1] = biological target: T1, SNORF25 (Homo sapiens, UniProt Q8TDV5); assay: Stimulation of cAMP release by CHO cells stably expressing hSNORF25 receptors; assay type: cell-based; set-up: expressed in transfected cells; settings: for stimulation of cAMP: 10 μM, data not shown; for % of PAF(C18) Response: maximum response as % of maximum response produced by PAF(C18) (taken as 100%); for EC50: mean ± S.E.M., at least 3 experiments, CHO cells stably expressing hSNORF25
T1 sequence (Q8TDV5 1-335): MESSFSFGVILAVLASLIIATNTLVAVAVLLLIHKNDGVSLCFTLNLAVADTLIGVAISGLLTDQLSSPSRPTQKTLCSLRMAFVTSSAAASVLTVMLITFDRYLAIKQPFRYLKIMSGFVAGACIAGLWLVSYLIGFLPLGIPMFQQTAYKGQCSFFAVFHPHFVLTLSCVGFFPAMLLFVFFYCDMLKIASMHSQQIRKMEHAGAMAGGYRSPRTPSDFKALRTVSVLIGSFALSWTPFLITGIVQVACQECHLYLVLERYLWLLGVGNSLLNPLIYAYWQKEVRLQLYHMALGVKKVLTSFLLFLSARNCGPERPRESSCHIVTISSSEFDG
Experimental: (§1) CHO cells are grown on 150 mm plates in HAM's F-12 medium with supplements (10% bovine calf serum, 4 mM L-glutamine and 100 units/ml penicillin/100 μg/ml streptomycin) at 37° C., 5% CO2. Stock plates of CHO cells are trypsinized and split 1:8 every 3–4 days.
Heterologous DNA can be stably incorporated into host cells, causing the cell to perpetually express a foreign protein. Methods for the delivery of the DNA into the cell are similar to those described above for transient expression but require the co-transfection of an ancillary gene to confer drug resistance on the targeted host cell. The ensuing drug resistance can be exploited to select and maintain cells that have taken up the DNA. An assortment of resistance genes are available including but not restricted to neomycin, kanamycin, and hygromycin. For the purposes of studies concerning the receptor of this invention, stable expression of a heterologous receptor protein is typically carried out in, mammalian cells including but not necessarily restricted to, CHO, HEK293, LM(tk−), etc.
(§2) The receptor-mediated stimulation or inhibition of cyclic AMP (cAMP) formation may be assayed in cells expressing the receptors. According to one method, cells are plated in 96-well plates or other vessels and preincubated in a buffer such as HEPES buffered saline (NaCl (150 mM), CaCl2 (1mM), KCl (5 mM), glucose (10 mM)) supplemented with a phosphodiesterase inhibitor such as 5 mM theophylline, with or without protease inhibitor cocktail (For example, a typical inhibitor cocktail contains 2 μg/ml aprotinin, 0.5 mg/ml leupeptin, and 10 μg/ml phosphoramidon.) for 20 min at 37° C., in 5% CO2. Test compounds are added with or without […] and incubated for an additional 10 min at 37° C. The medium is then aspirated and the reaction stopped by the addition of 100 mM HCl or other methods. The plates are stored at 4° C. for 15 min, and the cAMP content in the stopping solution is measured by radioimmunoassay. Radioactivity may be quantified using a gamma counter equipped with data reduction software. Specific modifications may be performed to optimize the assay for the receptor or to alter the detection method of cAMP.
as §2, with “According” for “The receptor-mediated stimulation or inhibition of cyclic AMP (cAMP) formation may be assayed in cells expressing the receptors. According”, “a second” for “one”, “washed 2 times with” for “plated in 96-well plates or other vessels and preincubated in a buffer such as”, “saline, as described above, and incubated overnight. On the day of the experiment, cells are washed 2 times with HEPES” for “saline (NaCl (150 mM), CaCl2 (1mM), KCl (5 mM), glucose (10 mM))”
Several other closely related analogues of PAF namely Lyso-PAF with different carbon chains also stimulated cAMP.

SNORF25 [2] = biological target: T1, SNORF25; assay: CFTR Cl- currents in Xenopus oocytes co-injected with SNORF25 and CFTR mRNA; assay type: cell-based; set-up: from linearized plasmids or PCR products containing the complete coding region of the genes; expressed in transfected cells; host or cells: Xenopus laevis oocytes injected with SNORF25 mRNA (with or without CFTR mRNA); settings: 10 μM; for CFTR current response: oocytes with SNORF25 and CFTR mRNA (FIG. 12A)
Experimental: Oocytes are harvested from Xenopus laevis and injected with mRNA transcripts as previously described (Quick and Lester, 1994; Smith et al., 1997). The test receptor of this invention and Gα subunit RNA transcripts are synthesized using the T7 polymerase (“Message Machine,” Ambion) from linearized plasmids or PCR products containing the complete coding region of the genes. Oocytes are injected with 10 ng synthetic receptor RNA and incubated for 3–8 days at 17 degrees. Three to eight hours prior to recording, oocytes are injected with 500 pg promiscuous Gα subunits mRNA in order to observe coupling to Ca^++ activated Cl^− currents.
Each of the compounds was tested at 10 μM. Oocytes expressing SNORF25 generated inward Cl^− currents, consistent with CFTR activation, in response to all four of the ligands.
The activity of SNORF25 was therefore tested in oocytes co-injected with mRNA encoding SNORF25 and mRNA encoding CFTR. In 17 out of 39 of these oocytes an inward Cl^− current (105±20 nA) was measured in response to the application of 10 μM all-trans-retinoic acid (See FIGS. 9A–9C and 10).

PAF receptors = PAF receptors (Homo sapiens, UniProt P25105); settings: cloned or native PAF receptors; cited from earlier work
PAF receptors, sequence (P25105 whole entry): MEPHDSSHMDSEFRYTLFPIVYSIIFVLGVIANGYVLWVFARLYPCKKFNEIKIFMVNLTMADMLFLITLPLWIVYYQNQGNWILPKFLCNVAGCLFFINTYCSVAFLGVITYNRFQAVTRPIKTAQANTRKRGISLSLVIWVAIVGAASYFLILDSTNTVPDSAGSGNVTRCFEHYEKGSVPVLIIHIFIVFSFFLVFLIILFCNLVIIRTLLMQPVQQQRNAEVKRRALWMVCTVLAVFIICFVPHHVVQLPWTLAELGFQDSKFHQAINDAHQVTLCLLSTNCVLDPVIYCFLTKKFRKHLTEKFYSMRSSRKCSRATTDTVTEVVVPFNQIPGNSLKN

SNORF25 receptor [3] = assay: cAMP release in Cos-7 cells transiently transfected with SNORF25; assay type: cell-based; settings: Cos-7 cells transiently transfected with SNORF25; preliminary, data not shown
Experimental: (§3) COS-7 cells are grown on 150 mm plates in DMEM with supplements (Dulbecco's Modified Eagle Medium with 10% bovine calf serum, 4 mM glutamine, 100 units/ml penicillin/100 μg/ml streptomycin) at 37° C., 5% CO2. Stock plates of COS-7 cells are trypsinized and split 1:6 every 3–4 days.
(§4) A typical protocol for the electroporation method as applied to Cos-7 cells is described as follows. Cells to be used for transfection are split 24 hours prior to the transfection to provide flasks which are subconfluent at the time of transfection. The cells are harvested by trypsinization resuspended in their growth media and counted. 5×10^6 cells are suspended in 300 μl of DMEM and placed into an electroporation cuvette. 8 μg of receptor DNA plus 8 μg of any additional DNA needed (e.g. G protein expression vector, reporter construct, antibiotic resistance marker, mock vector, etc.) is added to the cell suspension, the cuvette is placed into a BioRad Gene Pulser and subjected to an electrical pulse (Gene Pulser settings: 0.25 kV voltage, 950 μF capacitance). […]
(§5) The receptor-mediated stimulation or inhibition of cyclic AMP (cAMP) formation may be assayed in cells expressing the receptors. […] The plates are stored at 4° C. for 15 min, and the cAMP content in the stopping solution is measured by radioimmunoassay. Radioactivity may be quantified using a gamma counter equipped with data reduction software. […]

untransfected CHO cells = assay: cAMP release in native untransfected CHO cells; assay type: cell-based, Chinese hamster; settings: FIG. 11A
Experimental: as §1
as §2, with “cAMP. […]” for “cAMP.”

[4] = test system: mock-transfected Cos-7 cells; assay: cAMP in mock-transfected Cos-7 cells; assay type: cell-based; settings: preliminary
Experimental: as §3, §4, §5

[5] = test system: isolated rat pancreatic islets; settings: cited from earlier work
SNORF25 receptor [6] = biological target: T2, SNORF25 receptor (Rattus norvegicus, UniProt Q7TQN8); assay: cAMP release in CHO cells transiently transfected with SNORF25; assay type: cell-based; settings: 10 μM; SNORF25-transfected cells (FIG. 6)
T2 construct: the entire coding region was amplified from Rin14b cell line cDNA and rat genomic DNA; expressed in transfected cells; host or cells: CHO cells, transient (electroporation)
T2 sequence (Q7TQN8 with tags, fused parts or gaps limits assumed): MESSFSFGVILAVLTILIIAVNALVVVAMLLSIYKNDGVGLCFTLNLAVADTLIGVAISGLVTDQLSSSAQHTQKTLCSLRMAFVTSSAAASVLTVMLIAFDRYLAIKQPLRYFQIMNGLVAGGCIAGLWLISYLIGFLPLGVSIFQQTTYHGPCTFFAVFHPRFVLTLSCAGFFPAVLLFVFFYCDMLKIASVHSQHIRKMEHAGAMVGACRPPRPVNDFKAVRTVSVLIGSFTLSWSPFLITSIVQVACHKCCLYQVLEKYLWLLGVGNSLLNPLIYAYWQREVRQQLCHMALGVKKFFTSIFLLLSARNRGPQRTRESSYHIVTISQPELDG
Experimental: as §1, §4, §5

[7] = biological target: B2 adrenergic receptor (B2AR) (Homo sapiens, UniProt P07550); settings: 1 μM; holding potential −70 mV (FIG. 9C)
B2 adrenergic receptor (B2AR), sequence (P07550 whole entry, species assumed): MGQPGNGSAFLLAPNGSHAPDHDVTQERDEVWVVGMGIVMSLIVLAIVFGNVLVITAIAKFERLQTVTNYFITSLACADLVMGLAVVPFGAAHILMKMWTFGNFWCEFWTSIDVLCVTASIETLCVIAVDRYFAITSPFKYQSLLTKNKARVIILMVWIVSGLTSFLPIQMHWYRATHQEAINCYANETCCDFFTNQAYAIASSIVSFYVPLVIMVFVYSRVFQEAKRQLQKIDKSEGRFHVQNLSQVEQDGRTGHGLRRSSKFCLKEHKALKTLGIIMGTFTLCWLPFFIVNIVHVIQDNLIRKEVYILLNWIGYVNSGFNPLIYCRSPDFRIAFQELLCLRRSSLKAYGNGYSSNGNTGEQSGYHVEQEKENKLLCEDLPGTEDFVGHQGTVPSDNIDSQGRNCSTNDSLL

CC1=C(/C=C/C(C)=C/C=C/C(C)=C/C=C/C=C(C)/C=C/C=C(C)/C=C/C2=C(C)CCCC2(C)C)C(C)(C)CCC1 [Atb carotene]
stimulation of cAMP (SNORF25 [1]): no stimulation of cAMP

PAF(C16)
% of PAF(C18) Response (SNORF25 [1]): 110% | CFTR current response (SNORF25 [2]): robust responses

1-O-alkyl-2-acetyl-sn-glycero-3-phosphocholine [PAF]
Emax of cAMP response (SNORF25 [1]; CHO cells expressing SNORF25 (FIG. 11A)): 200–400 % basal | potency / activation at typical PAF receptors (PAF receptors): nanomolar potencies | stimulation of cAMP levels (SNORF25 receptor [3]): 4–5 fold | cAMP response in untransfected CHO cells (untransfected CHO cells): No response | stimulation of cAMP levels in mock-transfected cells [4]: not mock-transfected cells | potency in inducing insulin secretion relative to lyso-PAF [5]: nearly equipotent to lyso-PAF

CCCCCCCCCCCCCCCCCCOC[C@@H](O)COP(=O)([O-])OCC[N+](C)(C)C [Lyso-PAF(C18)]
% of PAF(C18) Response (SNORF25 [1]): 70% | EC50 (SNORF25 [1]): 5.45 ± 2.63 µM | CFTR current response (SNORF25 [2]): robust responses

CC1=C(/C=C/C(C)=C/C=C/C(C)=C/CO)C(C)(C)CCC1 [All-trans retinol, all-trans-retinol]
increase in cAMP (SNORF25 receptor [6]): failed to produce an increase in cAMP

C=C1CC[C@H](O)C/C1=C/C=C1\CCC[C@]2(C)[C@@H]([C@H](C)CCCC(C)C)CC[C@@H]12 [vitamin D3]
stimulation of cAMP (SNORF25 [1]): no stimulation of cAMP

CCCCCCCCCCCCCCCCOC[C@@H](O)COP(=O)([O-])OCC[N+](C)(C)C [Lyso-PAF(C16)]
% of PAF(C18) Response (SNORF25 [1]): 120% | EC50 (SNORF25 [1]): 3.48 ± 1.13 µM | inward Cl- current amplitude (SNORF25 [2]; oocytes with SNORF25 and CFTR mRNA): 61.7±7.8 nA | CFTR current response (SNORF25 [2]): robust responses

CNC[C@H](O)c1ccc(O)c(O)c1 [epinephrine]
CFTR current [7]: evokes a similar current

CCCCCCCCCCCCCCCCOC[C@@H](O)COP(=O)([O-])OCC[N+](C)(C)C [lyso-PAF]
potency / activation at typical PAF receptors (PAF receptors): not activated | EC50 ([5]; basal (1.7 mM) and stimulatory (16.7 mM) glucose, read-out: EC50 of insulin release): ~100 µM

CCCCC/C=C\C/C=C\C/C=C\C/C=C\CCCC(=O)O [AA]
stimulation of cAMP (SNORF25 [1]): no stimulation of cAMP

CC(C)=CCC/C(C)=C/C=C/C(C)=C/C=C/C(C)=C/C=C/C=C(C)/C=C/C=C(C)/C=C/C=C(\C)CCC=C(C)C [licopene]
stimulation of cAMP (SNORF25 [1]): no stimulation of cAMP

vitamin E
stimulation of cAMP (SNORF25 [1]): no stimulation of cAMP
